Measurements reported in US20260144753A1, “MULTIVALENT IONIZABLE LIPID DELIVERY SYSTEMS” (Factor Bioscience Inc., priority 2023, published 2026).
“Also recorded” adds a separate entry of the source. Where two headings read alike, the source gives them in different places. Values belong to the molecule of their own block, whether it stands above or below them.

Key:
[1] = Encapsulation efficiency of LNPs, RiboGreen assay; format: physicochemical; conditions: for average encapsulation efficiency (%): RiboGreen
Description: LNPs were formulated through bulk mixing using a molar ratio of 50:38.5:10:1.5 (ionizable lipid/cholesterol/DSPC/DMG-PEG2000) and a 0.067 weight ratio of mRNA to ionizable lipid. Lipoplexes were formulated at various weight ratios of lipid:mRNA, and mRNA loading efficiency was determined via gel electrophoresis. […] Encapsulation efficiency of LNPs was measured using a RiboGreen assay.

[2] = test system: THP-1 human monocyte cell line; assay: THP-1 monocyte transfection efficiency, GFP mRNA lipoplexes and LNPs, flow cytometry; format: cell-based; conditions: for in vitro transfection efficiency, LNP form (in words): LNPs; for transfection efficiency in lipoplex screen (in words): Family D lipoplexes, lipid:mRNA weight ratio of 2:1, THP-1
Description: LNPs were formulated through bulk mixing using a molar ratio of 50:38.5:10:1.5 (ionizable lipid/cholesterol/DSPC/DMG-PEG2000) and a 0.067 weight ratio of mRNA to ionizable lipid. Lipoplexes were formulated at various weight ratios of lipid:mRNA, and mRNA loading efficiency was determined via gel electrophoresis.
To evaluate transfection efficiency and cytotoxicity, THP-1 monocytes and Jurkat T cells were transfected with lipoplexes and lipid nanoparticles.
Density plots are shown of GFP+ transfected cells from doses of 2000 ng RNA per 120,000 cells for each formulation.
These 5 lipids are all in the Family D with a spermine headgroup and bis 2-hexyldecanoate tails. Lipids are listed in order of increasing carbon spacer link length. Lipoplexes were created using a lipid:mRNA weight ratio of 2:1 for each formulation.
The measured diameter of the Compound XVI lipoplexes was 359 nm. Compound XVI also functioned effectively as a solid LNP when using a molar ratio of 50:38.5:10:1.5 (ionizable lipid/cholesterol/DSPC/DMG-PEG2000) and a 0.12 weight ratio of mRNA to ionizable lipid. […] The ability to efficiently target blood cells using lipid delivery systems opens the door to a variety of applications, including potent in vivo mRNA delivery and cell reprogramming. […]

[3] = test system: THP-1 monocytes; assay: Viability of THP-1 monocytes after transfection, Cell Titer Glo; format: cell-based, human
Description: Relative viability was determined using a Cell Titer Glo viability assay and calculating viability relative to untransfected cells.

[4] = test system: HEKn cells; assay: LNP transfection efficacy in HEKn cells, mean GFP fluorescence intensity; format: cell-based; conditions: increasing amounts of mRNA
Description: Experiments were conducted to characterize LNP transfection efficacy of Compound XXXV in HEKn cells. A performance comparison was run between control (ToRNAdo lipoplex) and test subject Compound XXXV LNP with increasing amounts of mRNA, with other variables held constant. […] Mean GFP fluorescence intensity was calculated using Operetta® Harmony software. […] An experiment was conducted to characterize lipoplex efficiency in Jurkat cells. A performance comparison was run between control (Lipofectamine 3000) and spermine bis hexyldecanoate ionizable lipid compounds with varying tether length (3-7). Lipid:mRNA weight ratios were optimized for each lipid as determined by gel electrophoresis (Compound XX (2:1), Compound XXVIII (2.5:1), Compound XIX (1:2), Compound XVI (2.5:1), Compound XXIV (1:1)). […] The bottom panels (“Neg.”) of FIG. 57 depict negative control experiments wherein no RNA was delivered.

[5] = Zeta potential of nanoparticle formulation; format: physicochemical; conditions: LNPs, at a pH of 7.0
[6] = Dynamic light scattering, hydrodynamic diameter of the nanoparticles; format: physicochemical
Description: […] Lipoplexes were formulated at various weight ratios of lipid:mRNA, and mRNA loading efficiency was determined via gel electrophoresis. […] Dynamic light scattering (DLS) was used to determine hydrodynamic diameter of the nanoparticles, graphed as number particle size distribution. Polydispersity index (PDI) was also measured.

[7] = test system: Jurkat T cells; assay: Jurkat T cell transfection efficiency of lipoplex formulations, flow cytometry; format: cell-based; conditions: lipoplexes, 100 ng RNA per 100,000 cells, compared to other lipids in Family D
Description: To evaluate transfection efficiency and cytotoxicity, THP-1 monocytes and Jurkat T cells were transfected with lipoplexes and lipid nanoparticles. […] A screen of 4 lipoplex formulations was analyzed using flow cytometry for doses of 100 ng RNA per 100,000 cells.

[8] = test system: rat dermal tissue; assay: Intradermal injection of lipid-complexed GFP mRNA in rats; format: in vivo; conditions: 2000 ng GFP mRNA, 48 hours
Description: In this Example, in vivo experiments were carried out in rats to investigate the transfection and expression efficiency of RNA complexed with the lipids of the present disclosure.
2000 ng of DLinDHS-complexed GFP mRNA was administered to rats by intradermal injection. After 48 hours, the injection site was fixed and stained (anti-rabbit GFP).

SMILES: CCCCC/C=C\C/C=C\CCCCCCCCC(CCCCCCCC/C=C\C/C=C\CCCCC)OC(=O)CCCN(C)C [DLin-MC3-DMA, reference compound]
average encapsulation efficiency (%) [1]: 61.7% | in vitro transfection efficiency, LNP form (in words) ([2]; GFP mRNA, THP-1): low transfection efficiency | toxicity, viability of THP-1 monocytes after transfection (in words) ([3]; LNPs and lipoplexes (FIG. 10)): very little toxicity

SMILES: CCCCCCCCC(CCCCCC)C(=O)OCCCCCN(CCCN)CCCCN(CCCN)CCCCCOC(=O)C(CCCCCC)CCCCCCCC (stereo not drawn) [Compound XIX]
transfection efficiency in lipoplex screen (in words) [2]: greatest transfection efficiency | toxicity, relative viability of THP-1 monocytes after transfection (in words) [3]: greatest toxicity

SMILES: CCCCCCCCC(CCCCCC)C(=O)OCCCCCCN(CCCCN(CCCCCCOC(=O)C(CCCCCC)CCCCCCCC)CC(O)CN)CC(O)CN (stereo not drawn) [Compound XXXV, (butane-1,4-diylbis((3-amino-2-hydroxypropyl)azanediyl))bis(hexane-6,1-diyl) bis(2-hexyldecanoate)]
LNP transfection into HEKn cells, mean GFP fluorescence intensity (in words) [4]: successful transfection into HEKn cells with diminishing returns as mRNA dosage increased

average encapsulation efficiency (%) [1]: 87.0% | surface charge [5]: +3.6 mV | half-maximal effective concentration (EC50) ([2]; lipoplexes, GFP mRNA, THP-1): 147 ng RNA per 50,000 cells | measured diameter of the lipoplexes ([6]; lipoplexes): 359 nm | diameter of LNPs ([6]; solid LNP, molar ratio 50:38.5:10:1.5 (ionizable lipid/cholesterol/DSPC/DMG-PEG2000), 0.12 weight ratio of mRNA to ionizable lipid): 170 nm
SMILES: CCCCCCCCC(CCCCCC)C(=O)OCCCCCCN(CCCN)CCCCN(CCCN)CCCCCCOC(=O)C(CCCCCC)CCCCCCCC (stereo not drawn) [Compound XVI, (butane-1,4-diylbis((3-aminopropyl)azanediyl))bis(hexane-6,1-diyl) bis(2-hexyldecanoate)]
encapsulation efficiency of LNPs (in words) [1]: near complete encapsulation efficiency; also recorded: greater encapsulation of mRNA | transfection efficiency in lipoplex screen (in words) [2]: greatest transfection efficiency | in vitro transfection efficiency, LNP form (in words) ([2]; GFP mRNA, THP-1): greater in vitro transfection efficiency than the clinically used Dlin-MC3-DMA LNPs; also recorded: greater in vitro transfection efficiency of THP-1 monocytes than commercially-available controls | in vitro transfection efficiency, lipoplex form (in words) ([2]; lipoplexes, GFP mRNA, THP-1): greatest transfection efficiency; also recorded: greater in vitro transfection efficiency of THP-1 monocytes than commercially-available controls | toxicity, viability of THP-1 monocytes after transfection (in words) [3]: significantly greater toxicity than respective Compound XVI lipoplexes | transfection in the Jurkat T cell line (in words) [7]: greatest transfection

SMILES: CCCCC/C=C\C/C=C\CCCCCCCCN(CCCCN(CCCCCCCC/C=C\C/C=C\CCCCC)CC(O)CN)CC(O)CN (stereo not drawn) [DLinDHS, N^1,N^4-dilinoleyl-N^1,N^4-di-(2-hydroxy-3-aminopropyl)-diaminobutane]
GFP reporter expression after intradermal injection (in words) [8]: localized expression in the dermal layer
